Data from PubChem BioAssay (NCI).
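Growth conditions: 96-well plates. Treatment: test compound, 48 hours, 5 concentrations. Analysis: linear interpolation between bracketing concentrations; unreached endpoints set to highest concentration. GI50 = concentration required for 50% inhibition of growth. TGI is the concentration that stops growth completely.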

Legend:
Experiment in all cases: inhibition of tumour cell growth, NCI panel, 48 h
786-0 renal = test system: 786-0 renal
A498 renal = test system: A498 renal
A549 NSCLC = test system: A549 NSCLC
ACHN renal = test system: ACHN renal
BT-549 breast = test system: BT-549 breast
CAKI-1 renal = test system: CAKI-1 renal
CCRF-CEM leukemia = test system: CCRF-CEM leukemia
COLO 205 colon = test system: COLO 205 colon
DU-145 prostate = test system: DU-145 prostate
EKVX NSCLC = test system: EKVX NSCLC
HCC-2998 colon = test system: HCC-2998 colon
HCT-116 colon = test system: HCT-116 colon
HCT-15 colon = test system: HCT-15 colon
HL-60(TB) leukemia = test system: HL-60(TB) leukemia
HOP-62 NSCLC = test system: HOP-62 NSCLC
HOP-92 NSCLC = test system: HOP-92 NSCLC
HS 578T breast = test system: HS 578T breast
HT29 colon = test system: HT29 colon
IGROV1 ovarian = test system: IGROV1 ovarian
K-562 leukemia = test system: K-562 leukemia
KM12 colon = test system: KM12 colon
LOX IMVI melanoma = test system: LOX IMVI melanoma
M14 melanoma = test system: M14 melanoma
MALME-3M melanoma = test system: MALME-3M melanoma
MCF7 breast = test system: MCF7 breast
MDA-MB-231 breast = test system: MDA-MB-231 breast
MDA-MB-435 = test system: MDA-MB-435
MOLT-4 leukemia = test system: MOLT-4 leukemia
NCI-H226 lung = test system: NCI-H226 lung
NCI-H23 lung = test system: NCI-H23 lung
NCI-H460 lung = test system: NCI-H460 lung
NCI-H522 lung = test system: NCI-H522 lung
NCI/ADR-RES ovarian = test system: NCI/ADR-RES ovarian
OVCAR-3 ovarian = test system: OVCAR-3 ovarian
OVCAR-4 ovarian = test system: OVCAR-4 ovarian
OVCAR-5 ovarian = test system: OVCAR-5 ovarian
OVCAR-8 ovarian = test system: OVCAR-8 ovarian
PC-3 prostate = test system: PC-3 prostate
RPMI-8226 leukemia = test system: RPMI-8226 leukemia
RXF 393 renal = test system: RXF 393 renal
SF-268 CNS = test system: SF-268 CNS
SF-295 CNS = test system: SF-295 CNS
SF-539 CNS = test system: SF-539 CNS
SK-MEL-2 melanoma = test system: SK-MEL-2 melanoma
SK-MEL-28 melanoma = test system: SK-MEL-28 melanoma
SK-MEL-5 melanoma = test system: SK-MEL-5 melanoma
SK-OV-3 ovarian = test system: SK-OV-3 ovarian
SN12C renal = test system: SN12C renal
SNB-19 CNS = test system: SNB-19 CNS
SNB-75 CNS = test system: SNB-75 CNS
SR leukemia = test system: SR leukemia
SW-620 colon = test system: SW-620 colon
T-47D breast = test system: T-47D breast
TK-10 renal = test system: TK-10 renal
U251 CNS = test system: U251 CNS
UACC-257 melanoma = test system: UACC-257 melanoma
UACC-62 melanoma = test system: UACC-62 melanoma
UO-31 renal = test system: UO-31 renal

CCCS(=O)(=O)Nc1ccc(F)c(C(=O)c2c[nH]c3ncc(Cl)cc23)c1F
GI50 (786-0 renal): 10.7 µM
TGI (786-0 renal): 74.9 µM
GI50 (A498 renal): 5.14 µM
TGI (A498 renal): 24 µM
GI50 (A549 NSCLC): 9.87 µM
TGI (A549 NSCLC): 56.5 µM
GI50 (ACHN renal): 3.78 µM
TGI (ACHN renal): 66.4 µM
GI50 (BT-549 breast): 13.3 µM
TGI (BT-549 breast): 57.9 µM
GI50 (CAKI-1 renal): 3.65 µM
TGI (CAKI-1 renal): 56.9 µM
GI50 (CCRF-CEM leukemia): 16.6 µM
TGI (CCRF-CEM leukemia): 99.1 µM
GI50 (COLO 205 colon): 0.116 µM
TGI (COLO 205 colon): 17.3 µM
GI50 (DU-145 prostate): 7.55 µM
TGI (DU-145 prostate): 80.6 µM
GI50 (EKVX NSCLC): 18.3 µM
TGI (EKVX NSCLC): 80.9 µM
GI50 (HCC-2998 colon): 17.7 µM
TGI (HCC-2998 colon): 72.4 µM
GI50 (HCT-116 colon): 6.21 µM
TGI (HCT-116 colon): 62.7 µM
GI50 (HCT-15 colon): 6.62 µM
TGI (HCT-15 colon): > 97.3 µM
GI50 (HL-60(TB) leukemia): 20 µM
TGI (HL-60(TB) leukemia): 57.4 µM
GI50 (HOP-62 NSCLC): 10.2 µM
TGI (HOP-62 NSCLC): 65.8 µM
GI50 (HOP-92 NSCLC): 3.2 µM
TGI (HOP-92 NSCLC): 15.4 µM
GI50 (HS 578T breast): 3.9 µM
TGI (HS 578T breast): 26.7 µM
GI50 (HT29 colon): 0.2 µM
TGI (HT29 colon): 21.8 µM
GI50 (IGROV1 ovarian): 5 µM
TGI (IGROV1 ovarian): 75.4 µM
GI50 (K-562 leukemia): 9.87 µM
TGI (K-562 leukemia): > 81.5 µM
GI50 (KM12 colon): 11.4 µM
TGI (KM12 colon): > 79.8 µM
GI50 (LOX IMVI melanoma): 2.05 µM
TGI (LOX IMVI melanoma): 31.1 µM
GI50 (M14 melanoma): 0.109 µM
TGI (M14 melanoma): 5.18 µM
GI50 (MALME-3M melanoma): 0.0281 µM
TGI (MALME-3M melanoma): 0.174 µM
GI50 (MCF7 breast): 20.2 µM
TGI (MCF7 breast): 69.9 µM
GI50 (MDA-MB-231 breast): 9.09 µM
TGI (MDA-MB-231 breast): 33.7 µM
GI50 (MDA-MB-435): 0.337 µM
TGI (MDA-MB-435): 29.6 µM
GI50 (MOLT-4 leukemia): 14.7 µM
TGI (MOLT-4 leukemia): > 83 µM
GI50 (NCI-H226 lung): 16.2 µM
TGI (NCI-H226 lung): 78.1 µM
GI50 (NCI-H23 lung): 20.7 µM
TGI (NCI-H23 lung): > 91.6 µM
GI50 (NCI-H460 lung): 5.92 µM
TGI (NCI-H460 lung): 50.3 µM
GI50 (NCI-H522 lung): 8.34 µM
TGI (NCI-H522 lung): 31.5 µM
GI50 (NCI/ADR-RES ovarian): 14.8 µM
TGI (NCI/ADR-RES ovarian): > 90.3 µM
GI50 (OVCAR-3 ovarian): 15.4 µM
TGI (OVCAR-3 ovarian): 58.7 µM
GI50 (OVCAR-4 ovarian): 9.74 µM
TGI (OVCAR-4 ovarian): 75.7 µM
GI50 (OVCAR-5 ovarian): 23.3 µM
TGI (OVCAR-5 ovarian): > 92.8 µM
GI50 (OVCAR-8 ovarian): 8.81 µM
TGI (OVCAR-8 ovarian): 61.8 µM
GI50 (PC-3 prostate): 10.6 µM
TGI (PC-3 prostate): 77.6 µM
GI50 (RPMI-8226 leukemia): 25.2 µM
TGI (RPMI-8226 leukemia): > 100 µM
GI50 (RXF 393 renal): 5.23 µM
TGI (RXF 393 renal): 22.4 µM
GI50 (SF-268 CNS): 13.5 µM
TGI (SF-268 CNS): 73 µM
GI50 (SF-295 CNS): 5.35 µM
TGI (SF-295 CNS): 45.6 µM
GI50 (SF-539 CNS): 9.1 µM
TGI (SF-539 CNS): 57.4 µM
GI50 (SK-MEL-2 melanoma): 4.37 µM
TGI (SK-MEL-2 melanoma): 16.4 µM
GI50 (SK-MEL-28 melanoma): 0.109 µM
TGI (SK-MEL-28 melanoma): 9.62 µM
GI50 (SK-MEL-5 melanoma): 1.24 µM
TGI (SK-MEL-5 melanoma): 19 µM
GI50 (SK-OV-3 ovarian): 3.76 µM
TGI (SK-OV-3 ovarian): 36.5 µM
GI50 (SN12C renal): 7.66 µM
TGI (SN12C renal): 84.9 µM
GI50 (SNB-19 CNS): 29.7 µM
TGI (SNB-19 CNS): 99.7 µM
GI50 (SNB-75 CNS): 4.9 µM
TGI (SNB-75 CNS): 24.8 µM
GI50 (SR leukemia): 4.68 µM
TGI (SR leukemia): 48 µM
GI50 (SW-620 colon): 22.6 µM
TGI (SW-620 colon): 87.3 µM
GI50 (T-47D breast): 8.55 µM
TGI (T-47D breast): 65 µM
GI50 (TK-10 renal): 6.3 µM
TGI (TK-10 renal): 35.9 µM
GI50 (U251 CNS): 9.08 µM
TGI (U251 CNS): 60.5 µM
GI50 (UACC-257 melanoma): 0.129 µM
TGI (UACC-257 melanoma): 1.18 µM
GI50 (UACC-62 melanoma): 0.0639 µM
TGI (UACC-62 melanoma): 2.14 µM
GI50 (UO-31 renal): 6.4 µM
TGI (UO-31 renal): 66.3 µM
